# Measurements from patent US20220380721A1, “METHOD FOR COUPLING ANTIBODY TO SURFACE OF CELL AND METHOD FOR APPLYING CELL COUPLED WITH THE ANTIBODY” (Xiamen Nuokangde Biological Technology Co., Ltd., priority 2019, published 2022).
# Tested on: NK92 cells
# Test: Metabolic incorporation of azido sialic acid in NK92 cells, detected with FITC-Stau by confocal laser microscope
# Format: cell-based
# Conditions: NK92 cells cultured with 100 μM 9N3-SA for 24-48 hours; FITC-Stau 100 μM, 37° C., 2-4 hours; compared with cells not modified
# Protocol: NK92 cells normally cultured are distributed into a 24-well plate and then cultured in a NK92 cell medium containing 9N3-SA with a final concentration of 100 μM for 24-48 hours. The NK92 cells are washed by PBS for 3 times, and the NK92 cell medium containing 9N3-SA is then replaced by a normal NK92 medium to obtain NK92 cells modified with the azide groups. In order to verify that the NK92 cells have been modified with the azide groups, in this embodiment, Fluorescein-Stau (FITC-Stau) (as shown in FIG. 3), a ligand molecule connected to fluorescein and able to orthogonally react with the azide groups, is synthesized. The FITC-Stau is added into a medium of the NK92 cell modified with the azide groups with a final concentration of 100 μM, incubated at 37° C. for 2-4 hours, and washed with PBS for 3 times, and fluorescence on the cell surface is then observed by a confocal laser microscope.
compound,measurement,value
COC(=O)[C@@]1(O)C[C@@H](O)[C@@H](NC(C)=O)C([C@H](O)[C@H](O)CN=[N+]=[N-])O1 (stereo partly shown) [9N3-SA],fluorescence on the cell surface after FITC-Stau labeling,strong fluorescence signal
